# Data published in patent publication US9315527B2, “Synthesis and applications of peripherally asymmetric aryl POSS compounds” (The United States of America as Represented by the …, priority 2011, dated 2016).
# Tests used:
# [1] = Solubility of aromatic POSS compounds in organic solvents by visual measurements; format: physicochemical; conditions: visual measurement; for Solubility in CHCl3: chloroform; for Solubility in PE: phenyl ether; for Solubility in Tol: toluene; for Solubility in DMF: dimethyl formamide; for Solubility in THF: tetrahydrofuran
# Protocol: The influence of the prescribed peripheral asymmetry of these compounds on solubility was determined by visual measurements in five organic solvents, including chloroform (CHCl3), tetrahydrofuran (THF), phenyl ether (PE), toluene (Tol), and dimethyl formamide (DMF), summarized in Table 1.
# The substitution of a single polycyclic aromatic ring on the POSS cage improves solubility substantially in most cases. However, it is difficult to predict the influence of each aromatic group on the observed solubility, as well as in which solvent the solubility will be affected. Modification with a 1-naphthyl group to produce (1-naphthyl)-phenyl7Si8O12 (3) results in solubility in CHCl3 and THF exceeding 100 mg/mL and the observance of more finite solubility in the other investigated solvents. Modification with a 2-naphthyl group to produce (2-naphthyl)phenyl7Si8O12 (4) increases solubility in PE and DMF, but reduces solubility in THF and CHCl3, when compared to (1-naphthyl)-phenyl7Si8O12 (3).
# [2] = Phase behavior of POSS in polyetherimide (Ultem 1000, PEI): chloroform solutions and drop cast annealed films; format: physicochemical; conditions: for Appearance of chloroform solution containing PEI and POSS: 5 weight percent PEI in chloroform, POSS 5 weight percent with respect to PEI
# Protocol: To examine the phase behavior of this new class of peripherally-asymmetric POSS nanoparticles with a representative aromatic polymer, attempts were made to solubilize both phenyl8Si8O12 and (1-naphthyl)phenyl7Si8O12 in polyetherimide (Ultem 1000, PEI). Chloroform solutions were prepared at a solute concentration of 5 weight percent PEI and POSS concentration of 5 weight percent with respect to PEI. Subsequent films from these solutions were drop cast onto glass substrates, dried under vacuum, and annealed at 220° C., above the glass transition temperature of PEI, to promote equilibrium phase formation.
# Qualitatively, the dried and annealed films were visually observed to be of contrasting appearance.
# [3] = chloroform, benchmark; cited from earlier work
Compound,Solubility in CHCl3 [1],Solubility in PE [1],Solubility in Tol [1],Appearance of chloroform solution containing PEI and POSS [2],"Visual appearance of dried and annealed PEI film ([2]; drop cast film, annealed at 220° C.)","Length scale of aggregated particles in PEI film ([2]; drop cast film, annealed at 220° C., microscopy, some regions)",Solubility in DMF [1],"Phase separation length scale in PEI film ([2]; drop cast film, annealed at 220° C., microscopy)",Solubility in THF [1],Solubility in CHCl3 (previously documented) [3]
"c1ccc([Si]23O[Si]4(c5ccccc5)O[Si]5(c6ccccc6)O[Si](c6ccccc6)(O2)O[Si]2(c6ccccc6)O[Si](c6ccccc6)(O3)O[Si](c3ccccc3)(O4)O[Si](c3ccccc3)(O5)O2)cc1 [Compound 2, phenyl8Si8O12]",1 mg/mL,^a (Insoluble.),^a (Insoluble.),cloudy,significantly more opaque,greater than 1 mm,,,,about 1 mg/mL
(1-naphthyl)-phenyl7Si8O12 [Compound 3],,15 mg/mL,^a (Insoluble.),transparent,,,24 mg/mL,less than 5 microns,,

# Further lines, with some results ahead:
Solubility in CHCl3 [1],Solubility in PE [1],Solubility in Tol [1],Appearance of chloroform solution containing PEI and POSS [2],"Visual appearance of dried and annealed PEI film ([2]; drop cast film, annealed at 220° C.)","Length scale of aggregated particles in PEI film ([2]; drop cast film, annealed at 220° C., microscopy, some regions)",Solubility in DMF [1],"Phase separation length scale in PEI film ([2]; drop cast film, annealed at 220° C., microscopy)",Solubility in THF [1],Compound,Solubility in CHCl3 (previously documented) [3]
7 mg/mL,4 mg/mL,5 mg/mL,,,,5 mg/mL,,10 mg/mL,(1-pyrenyl)phenyl7Si8O12 [Compound 6],
55 mg/mL,53 mg/mL,^a (Insoluble.),,,,35 mg/mL,,28 mg/mL,(2-naphthyl)phenyl7Si8O12 [Compound 4],
52 mg/mL,25 mg/mL,27 mg/mL,,,,57 mg/mL,,117 mg/mL,(9-phenanthrenyl)-phenyl7Si8O12 [Compound 5],
